The results in this text go back to ChEMBL document CHEMBL6114943, “Engineered Cyclotide Blocks Neuronal Excitotoxicity” (J Med Chem, 2025).

Series [1] in a line: Drug uptake in mouse Primary neuron at 500 nM incubated for 60 mins by inverted confocal microscopic analysis relative to control. The series is classed as ADME, cell-based. The settings on record: 1 h, 0.5 µM.
Series [2] in a line: Drug uptake in mouse Primary neuron at 100 nM incubated for 60 mins by inverted confocal microscopic analysis relative to control. The series is classed as ADME, cell-based. The settings on record: 1 h, 0.1 µM.
Series [3] in a line: Stability in C57BL/6 mouse plasma assessed as drug degradation at 100 uM measured after 5 hrs in presence of alteplase by HPLC analysis. The series is classed as ADME, cell-free.
Series [4] can be described thus: Stability in C57BL/6 mouse plasma assessed as drug degradation by measuring parent compound remaining at 100 uM measured after 5 hrs in presence of alteplase by HPLC analysis. The series is classed as ADME, cell-free. The settings on record: read-out: Stability.
A short description of series [5]: Stability in C57BL/6 mouse plasma assessed as parent compound remaining at 100 uM measured after 24 hrs by HPLC analysis. The series is classed as ADME, cell-free. The settings on record: read-out: Stability.
Series [6] can be described thus: Stability in C57BL/6 mouse plasma assessed as drug degradation by measuring parent compound remaining at 100 uM measured after 5 hrs by HPLC analysis. The series is classed as ADME, cell-free. As to conditions: read-out: Stability; call rule not given here.
Series [7] can be described thus: Stability in C57BL/6 mouse plasma assessed as parent compound remaining at 100 uM measured after 24 hrs in presence of alteplase by HPLC analysis. The settings on record: read-out: Stability. The series is classed as ADME, cell-free.
A short description of series [8]: Biodistribution in C57BL/6 mouse spleen at 3 nmol/g, iv measured after 90 mins post injection by fluorescence based analysis. The settings on record: in vivo, 1.5 h. The series is classed as ADME, organism-based.
Series [9] in a line: Biodistribution in C57BL/6 mouse brain at 3 nmol/g, iv measured after 90 mins post injection by fluorescence based analysis. The series is classed as ADME, organism-based. As to conditions: in vivo, 1.5 h.
A short description of series [10]: Biodistribution in C57BL/6 mouse heart at 3 nmol/g, iv measured after 90 mins post injection by fluorescence based analysis. The series is classed as ADME, organism-based. As to conditions: in vivo, 1.5 h.
The nature of series [11]: Biodistribution in C57BL/6 mouse kidney at 3 nmol/g, iv measured after 90 mins post injection by fluorescence based analysis. The settings on record: in vivo, 1.5 h. The series is classed as ADME, organism-based.
Series [12] can be described thus: Biodistribution in C57BL/6 mouse liver at 3 nmol/g, iv measured after 90 mins post injection by fluorescence based analysis. The series is classed as ADME, organism-based. As to conditions: in vivo, 1.5 h.
Series [13] is described as follows: Biodistribution in C57BL/6 mouse lung at 3 nmol/g, iv measured after 90 mins post injection by fluorescence based analysis. The settings on record: in vivo, 1.5 h. The series is classed as ADME, organism-based.
The nature of series [14]: Biodistribution in C57BL/6 mouse spleen at 3 nmol/g, iv measured after 24 hrs post injection by fluorescence based analysis. The series is classed as ADME, organism-based. The settings on record: in vivo.
The nature of series [15]: Biodistribution in C57BL/6 mouse lung at 3 nmol/g, iv measured after 24 hrs post injection by fluorescence based analysis. The settings on record: in vivo. The series is classed as ADME, organism-based.

*1 amine or outer side, *2 acyl side, *3 side chain or, on linkers, in order; H or OH if unused. Where a SMILES comes first, the peptide text is derived from it. Bridges are numbered along the chain shown (N, C = ends). The star is where a group is joined. X2 = CC(C)C[C@H](C(=O)[C@H](CCCCNC(=O)c1ccc(-c2c3ccc(=[N+](C)C)cc-3oc3cc(N(C)C)ccc23)c(C(=O)[O-])c1)N[*:2])C(=O)[*:1]; X1 = CC[N+]1=C(/C=C/C=C/C=C/C=C2/N(CCCCCC(=O)*)c3ccc(S(=O)(=O)O)cc3C2(C)C)C(C)(C)c2cc(S(=O)(=O)[O-])ccc21

As for `CC[C@H](C)[C@@H]1NC(=O)[C@@H]2CSSC[C@@H]3NC(=O)[C@H](C(C)C)NC(=O)[C@H](CC(=O)O)NC(=O)[C@H](CO)NC(=O)[C@H](CCC(=O)O)NC(=O)[C@H]([C@@H](C)CC)NC(=O)[C@H](CO)NC(=O)[C@H](CO)NC(=O)[C@H](CC(C)C)C(=O)[C@H](CCCCNC(=O)c4ccc(-c5c6ccc(=[N+](C)C)cc-6oc6cc(N(C)C)ccc56)c(C(=O)[O-])c4)NC(=O)[C@@H]4CSSC[C@H](NC(=O)[C@H](CC(=O)O)NC(=O)[C@H](CO)NC(=O)[C@H](CC(=O)O)NC(=O)[C@H](CCCNC(=N)N)NC(=O)[C@H](CCCNC(=N)N)NC(=O)[C@H](CSSC[C@H](NC1=O)C(=O)N[C@@H](CCCNC(=N)N)C(=O)NCC(=O)N[C@@H](CC(N)=O)C(=O)NCC(=O)N[C@@H](Cc1ccc(O)cc1)C(=O)N4)NC(=O)[C@H](CCCNC(=N)N)NC(=O)[C@H](CCCNC(=N)N)NC(=O)[C@H](CCCNC(=N)N)NC(=O)[C@H](CCCNC(=N)N)NC(=O)[C@H](CC(C)C)NC(=O)[C@H]([C@@H](C)CC)NC(=O)[C@H](CCCNC(=N)N)NC(=O)[C@@H]1CCCN1C3=O)C(=O)N1CCC[C@H]1C(=O)NCC(=O)N[C@@H](C)C(=O)N2` (SSIESDVCPRILRRRRCRRDSDCPGACICRGNGYC; disulfide 8-27, 17-29, 23-35; linker N-C via X2), the Drug uptake in [1] turned out to be 85.7%; in series [2], 75.9%. The Stability entry in series [3] is on record as “Unstable”. Besides, the remaining at 5 h, 100 µM in series [4] and in series [6] was 93% each time. Also, the remaining at 24 h, 100 µM in [5] and in series [7] was 90% each time.
Regarding `CC[C@H](C)[C@H](NC(=O)[C@H](CO)NC(=O)[C@H](CO)NC(=O)[C@H](CC(C)C)NC(=O)[C@H](CCCCN)NC(=O)[C@H](CCCNC(=N)N)NC(=O)[C@H](CCCNC(=N)N)NC(=O)[C@H](CCCNC(=N)N)NC(=O)[C@H](CCC(N)=O)NC(=O)[C@H](CCCNC(=N)N)NC(=O)[C@H](CCCNC(=N)N)NC(=O)[C@H](CCCCN)NC(=O)[C@H](CCCCN)NC(=O)[C@H](CCCNC(=N)N)NC(=O)CNC(=O)[C@H](Cc1ccc(O)cc1)NC(=O)CCCCCN1/C(=C/C=C/C=C/C=C/C2=[N+](CC)c3ccc(S(=O)(=O)[O-])cc3C2(C)C)C(C)(C)c2cc(S(=O)(=O)O)ccc21)C(=O)N[C@@H](CCC(=O)O)C(=O)N[C@@H](CO)C(=O)N[C@@H](CC(=O)O)C(=O)N[C@H](C(=O)O)C(C)C` (X1-YGRKKRRQRRRKLSSIESDV-OH), the Drug uptake entry in [8], in [9], in series [10], in [11], in series [12] and in series [13] was “Active” in each case. Also, the Drug uptake result in [14] and in series [15] was “Not_active” each time.
